Source: ChEMBL document CHEMBL5537128, “Discovery of LWY713 as a potent and selective FLT3 PROTAC degrader with in vivo activity against acute myeloid leukemia” (Eur J Med Chem, 2024)
Each block holds one molecule with its values, some of them ahead of it. Active and inactive are the calls of the source. The rule behind the calls is not given here.

How the values were obtained:
[1] = target: T1, Protein cereblon/Receptor-type tyrosine-protein kinase FLT3 (Homo sapiens, UniProt P36888+Q96SW2); test: PROTAC activity at CRBN/FLT3 in human MV4-11 cells harboring FLT3-ITD mutation assessed as induction of FLT3 degradation at 10 nM incubated for 24 hrs by immunoblotting analysis relative to control; assay type: cell-based
Target sequence in this assay (P36888 27-993 limits assumed): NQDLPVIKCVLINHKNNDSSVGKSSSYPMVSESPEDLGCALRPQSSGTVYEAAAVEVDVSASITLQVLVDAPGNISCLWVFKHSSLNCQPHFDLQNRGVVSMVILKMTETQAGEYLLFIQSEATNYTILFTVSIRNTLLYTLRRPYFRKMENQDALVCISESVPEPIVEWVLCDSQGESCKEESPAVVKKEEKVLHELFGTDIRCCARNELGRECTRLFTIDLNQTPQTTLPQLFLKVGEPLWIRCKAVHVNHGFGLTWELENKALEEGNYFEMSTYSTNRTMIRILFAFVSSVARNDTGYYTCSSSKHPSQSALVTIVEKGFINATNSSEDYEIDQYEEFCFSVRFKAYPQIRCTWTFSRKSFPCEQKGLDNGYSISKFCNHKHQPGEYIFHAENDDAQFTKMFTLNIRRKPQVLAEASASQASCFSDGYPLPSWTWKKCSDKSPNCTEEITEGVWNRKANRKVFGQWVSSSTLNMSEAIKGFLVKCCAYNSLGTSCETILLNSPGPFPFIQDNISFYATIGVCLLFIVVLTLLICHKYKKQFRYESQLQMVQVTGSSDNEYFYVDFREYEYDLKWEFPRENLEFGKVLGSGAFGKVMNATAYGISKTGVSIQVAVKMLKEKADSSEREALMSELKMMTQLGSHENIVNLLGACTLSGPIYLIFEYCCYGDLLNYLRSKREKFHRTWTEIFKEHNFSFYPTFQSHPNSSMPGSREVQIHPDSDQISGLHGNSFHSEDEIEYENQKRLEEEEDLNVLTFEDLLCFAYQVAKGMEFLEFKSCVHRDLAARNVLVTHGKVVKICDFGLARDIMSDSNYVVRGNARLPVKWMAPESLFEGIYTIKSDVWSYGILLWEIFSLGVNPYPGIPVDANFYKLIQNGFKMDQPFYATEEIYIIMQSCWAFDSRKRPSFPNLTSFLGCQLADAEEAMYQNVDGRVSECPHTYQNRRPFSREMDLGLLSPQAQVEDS
Target sequence in this assay (Q96SW2 whole entry partner): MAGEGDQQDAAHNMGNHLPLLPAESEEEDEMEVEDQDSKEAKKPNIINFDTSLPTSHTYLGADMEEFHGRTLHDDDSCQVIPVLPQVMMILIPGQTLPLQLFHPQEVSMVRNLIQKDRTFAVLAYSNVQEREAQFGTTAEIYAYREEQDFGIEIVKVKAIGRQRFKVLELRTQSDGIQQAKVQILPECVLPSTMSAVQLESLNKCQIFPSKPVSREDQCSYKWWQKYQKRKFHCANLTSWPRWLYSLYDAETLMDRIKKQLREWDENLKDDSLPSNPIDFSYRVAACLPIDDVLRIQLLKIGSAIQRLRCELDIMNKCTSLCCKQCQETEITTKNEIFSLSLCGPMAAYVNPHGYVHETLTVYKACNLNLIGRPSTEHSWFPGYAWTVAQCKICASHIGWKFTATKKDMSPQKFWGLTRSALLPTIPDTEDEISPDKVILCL

[2] = target: T1, Protein cereblon/Receptor-type tyrosine-protein kinase FLT3; test: PROTAC activity at CRBN/FLT3 in human MV4-11 cells harboring FLT3-ITD mutation assessed as induction of FLT3 degradation incubated for 24 hrs by immunoblotting analysis; assay type: cell-based
[3] = target: T1, Protein cereblon/Receptor-type tyrosine-protein kinase FLT3; test: PROTAC activity at CRBN/FLT3 in human MV4-11 cells harboring FLT3-ITD mutation assessed as induction of FLT3 degradation by measuring maximal efficacy incubated for 24 hrs by immunoblotting analysis relative to control; assay type: cell-based
Target sequence in this assay (P36888 27-993 limits assumed): as the sequence (P36888 27-993 limits assumed) above
Target sequence in this assay (Q96SW2 whole entry partner): as the sequence (Q96SW2 whole entry partner) above

MV4-11 [4] = test: Induction of cell cycle arrest at G0/G1 phase in human MV4-11 cells assessed as S phase cells at 2 nM incubated for 24 hrs by PI staining based flow cytometric analysis relative to control; assay type: functional
MV4-11 [5] = test: Induction of apoptosis in human MV4-11 cells assessed as late apoptotic cells at 10 nM incubated for 48 hrs by Annexin V/7-AAD staining based flow cytometric analysis relative to control; assay type: functional
MV4-11 [6] = test: Induction of cell cycle arrest at G0/G1 phase in human MV4-11 cells assessed as G0/G1 phase cells at 2 nM incubated for 24 hrs by PI staining based flow cytometric analysis relative to control; assay type: functional
MV4-11 [7] = test: Induction of cell cycle arrest at G0/G1 phase in human MV4-11 cells assessed as G0/G1 phase cells at 0.4 nM incubated for 24 hrs by PI staining based flow cytometric analysis relative to control; assay type: functional
MV4-11 [8] = test: Induction of apoptosis in human MV4-11 cells assessed as late apoptotic cells at 2 nM incubated for 48 hrs by Annexin V/7-AAD staining based flow cytometric analysis relative to control; assay type: functional
MV4-11 [9] = test: Induction of cell cycle arrest at G0/G1 phase in human MV4-11 cells assessed as G2/M phase cells at 2 nM incubated for 24 hrs by PI staining based flow cytometric analysis relative to control; assay type: functional
MV4-11 [10] = test: Induction of apoptosis in human MV4-11 cells assessed as early apoptotic cells at 2 nM incubated for 48 hrs by Annexin V/7-AAD staining based flow cytometric analysis relative to control; assay type: functional
MV4-11 [11] = test: Induction of cell cycle arrest at G0/G1 phase in human MV4-11 cells assessed as sub-G0/G1 phase cells at 2 nM incubated for 24 hrs by PI staining based flow cytometric analysis relative to control; assay type: functional
MV4-11 [12] = test: Induction of cell cycle arrest at G0/G1 phase in human MV4-11 cells assessed as G2/M phase cells at 0.4 nM incubated for 24 hrs by PI staining based flow cytometric analysis relative to control; assay type: functional
MV4-11 [13] = test: Induction of cell cycle arrest at G0/G1 phase in human MV4-11 cells assessed as S phase cells at 0.4 nM incubated for 24 hrs by PI staining based flow cytometric analysis relative to control; assay type: functional
MV4-11 [14] = test: Induction of cell cycle arrest at G0/G1 phase in human MV4-11 cells assessed as sub-G0/G1 phase cells at 0.4 nM incubated for 24 hrs by PI staining based flow cytometric analysis relative to control; assay type: functional
MV4-11 [15] = test: Antiproliferative activity against human MV4-11 cells assessed as inhibition of cell proliferation incubated for 72 hrs by CCK8 assay; assay type: functional, cell-based; settings: MV4-11, 72 h
MV4-11 [16] = test: Antitumor activity against human MV4-11 cells xenografted in NOD/SCID mouse assessed as reduction in tumor volume at 6 mg/kg, po administered once a day for 21 days; assay type: functional, organism-based; settings: time 21.0 day
MV4-11 [17] = test: Inhibition of PI3K/AKT signaling pathway in human MV4-11 cells assessed as reduction in phosphorylated AKT level at 0.08 to 50 nM incubated for 24 hrs by immunoblotting analysis; assay type: cell-based; settings: dose 0.08-50 nM
MV4-11 [18] = test: Induction of apoptosis in human MV4-11 cells assessed as necrotic cells at 10 nM incubated for 48 hrs by Annexin V/7-AAD staining based flow cytometric analysis relative to control; assay type: functional
MV4-11 [19] = test: Induction of apoptosis in human MV4-11 cells assessed as early apoptotic cells at 10 nM incubated for 48 hrs by Annexin V/7-AAD staining based flow cytometric analysis relative to control; assay type: functional

Compound: CCc1nc(C(N)=O)c(Nc2ccc(N3CCC(N4CCN(C(=O)CCCCCOc5ccc6c(c5)C(=O)N(C5CCC(=O)NC5=O)C6=O)CC4)CC3)c(OC)c2)nc1NC1CCOCC1 (configuration not stated)
Activity [1]: 32%

Compound: CCc1nc(C(N)=O)c(Nc2ccc(N3CCC(N4CCN(C(=O)CCCCCNc5cccc6c5C(=O)N(C5CCC(=O)NC5=O)C6=O)CC4)CC3)c(OC)c2)nc1NC1CCOCC1 (configuration not stated)
DC50 [2]: 2.26 nM | Emax [3]: 77.2% | Activity [1]: 66%

IC50 (MV4-11 [15]): 6.89 nM
Compound: CCc1nc(C(N)=O)c(Nc2ccc(N3CCC(N4CCN(C)CC4)CC3)c(OC)c2)nc1NC1CCOCC1 [GILTERITINIB]
Activity (MV4-11 [4]): 6.9% | Activity (MV4-11 [5]): 19.6% | Activity (MV4-11 [6]): 72.4% | Activity (MV4-11 [7]): 66.3% | Activity (MV4-11 [8]): 6.8% | Activity (MV4-11 [9]): 18.5% | Activity (MV4-11 [10]): 3% | Activity (MV4-11 [11]): 1.9% | Activity (MV4-11 [12]): 21.5% | Activity (MV4-11 [13]): 10.4% | Activity (MV4-11 [14]): 1.6% | Activity (MV4-11 [16]): Active | inhibition (MV4-11 [17]): inactive | Activity (MV4-11 [18]): 2.3% | Activity (MV4-11 [19]): 5.5%

Compound: CCc1nc(C(N)=O)c(Nc2ccc(N3CCC(N4CCN(C(=O)CCCOc5cccc6c5C(=O)N(C5CCC(=O)NC5=O)C6=O)CC4)CC3)c(OC)c2)nc1NC1CCOCC1 (configuration not stated)
Activity [1]: 30%

Compound: CCc1nc(C(N)=O)c(Nc2ccc(N3CCC(N4CCN(c5ccc6c(c5)C(=O)N(C5CCC(=O)NC5=O)C6=O)CC4)CC3)c(OC)c2)nc1NC1CCOCC1 (configuration not stated)
Activity [1]: 0%

Compound: CCc1nc(C(N)=O)c(Nc2ccc(N3CCC(N4CCN(C(=O)CCCNc5cccc6c5C(=O)N(C5CCC(=O)NC5=O)C6=O)CC4)CC3)c(OC)c2)nc1NC1CCOCC1 (configuration not stated)
Activity [1]: 34%

Compound: CCc1nc(C(N)=O)c(Nc2ccc(N3CCC(N4CCN(c5cccc6c5C(=O)N(C5CCC(=O)NC5=O)C6=O)CC4)CC3)c(OC)c2)nc1NC1CCOCC1 (configuration not stated)
Activity [1]: 0%

Compound: CCc1nc(C(N)=O)c(Nc2ccc(N3CCC(N4CCN(C(=O)COc5cccc6c5CN(C5CCC(=O)N(C)C5=O)C6=O)CC4)CC3)c(OC)c2)nc1NC1CCOCC1 (configuration not stated)
DC50 [2]: > 1000 nM | IC50 (MV4-11 [15]): 22.9 nM

Compound: CCc1nc(C(N)=O)c(Nc2ccc(N3CCC(N4CCN(C(=O)COc5cccc6c5C(=O)N(C5CCC(=O)NC5=O)C6=O)CC4)CC3)c(OC)c2)nc1NC1CCOCC1 (configuration not stated)
DC50 [2]: 1.26 nM | Emax [3]: 86.8% | Activity [1]: 58%

Compound: CCc1nc(C(N)=O)c(Nc2ccc(N3CCC(N4CCN(C(=O)CCCCCCCOc5ccc6c(c5)C(=O)N(C5CCC(=O)NC5=O)C6=O)CC4)CC3)c(OC)c2)nc1NC1CCOCC1 (configuration not stated)
Activity [1]: 6%

Compound: CCc1nc(C(N)=O)c(Nc2ccc(N3CCC(N4CCN(C(=O)CNc5cccc6c5C(=O)N(C5CCC(=O)NC5=O)C6=O)CC4)CC3)c(OC)c2)nc1NC1CCOCC1 (configuration not stated)
DC50 [2]: 0.98 nM | Emax [3]: 85% | Activity [1]: 60%

Compound: CCc1nc(C(N)=O)c(Nc2ccc(N3CCC(N4CCN(C(=O)CCCCCCCCCNc5ccc6c(c5)C(=O)N(C5CCC(=O)NC5=O)C6=O)CC4)CC3)c(OC)c2)nc1NC1CCOCC1 (configuration not stated)
Activity [1]: 0%

Compound: CCc1nc(C(N)=O)c(Nc2ccc(N3CCC(N4CCN(C(=O)CCCCCCCNc5ccc6c(c5)C(=O)N(C5CCC(=O)NC5=O)C6=O)CC4)CC3)c(OC)c2)nc1NC1CCOCC1 (configuration not stated)
Activity [1]: 40%

Compound: CCc1nc(C(N)=O)c(Nc2ccc(N3CCC(N4CCN(C(=O)CCCNc5ccc6c(c5)C(=O)N(C5CCC(=O)NC5=O)C6=O)CC4)CC3)c(OC)c2)nc1NC1CCOCC1 (configuration not stated)
Activity [1]: 9%

Compound: CCc1nc(C(N)=O)c(Nc2ccc(N3CCC(N4CCN(C(=O)CCCCCCCCCOc5ccc6c(c5)C(=O)N(C5CCC(=O)NC5=O)C6=O)CC4)CC3)c(OC)c2)nc1NC1CCOCC1 (configuration not stated)
Activity [1]: 0%

Compound: CCc1nc(C(N)=O)c(Nc2ccc(N3CCC(N4CCN(C(=O)CCCCCNc5ccc6c(c5)C(=O)N(C5CCC(=O)NC5=O)C6=O)CC4)CC3)c(OC)c2)nc1NC1CCOCC1 (configuration not stated)
Activity [1]: 52%

Compound: CCc1nc(C(N)=O)c(Nc2ccc(N3CCC(N4CCN(C(=O)CCCCCCCNc5cccc6c5C(=O)N(C5CCC(=O)NC5=O)C6=O)CC4)CC3)c(OC)c2)nc1NC1CCOCC1 (configuration not stated)
Activity [1]: 50%

Compound: CCc1nc(C(N)=O)c(Nc2ccc(N3CCC(N4CCN(C(=O)CCCOc5ccc6c(c5)C(=O)N(C5CCC(=O)NC5=O)C6=O)CC4)CC3)c(OC)c2)nc1NC1CCOCC1 (configuration not stated)
Activity [1]: 0%

Compound: CCc1nc(C(N)=O)c(Nc2ccc(N3CCC(N4CCN(C(=O)CCCCCCCCCOc5cccc6c5C(=O)N(C5CCC(=O)NC5=O)C6=O)CC4)CC3)c(OC)c2)nc1NC1CCOCC1 (configuration not stated)
Activity [1]: 0%

Compound: CCc1nc(C(N)=O)c(Nc2ccc(N3CCC(N4CCN(C(=O)COc5ccc6c(c5)C(=O)N(C5CCC(=O)NC5=O)C6=O)CC4)CC3)c(OC)c2)nc1NC1CCOCC1 (configuration not stated)
Activity [1]: 0%

Compound: CCc1nc(C(N)=O)c(Nc2ccc(N3CCC(N4CCN(C(=O)COc5cccc6c5C(=O)N(C5CCC(=O)NC5=O)C6)CC4)CC3)c(OC)c2)nc1NC1CCOCC1 (configuration not stated)
DC50 [2]: 1.01 nM

Compound: CCc1nc(C(N)=O)c(Nc2ccc(N3CCC(N4CCN(C(=O)CNc5ccc6c(c5)C(=O)N(C5CCC(=O)NC5=O)C6=O)CC4)CC3)c(OC)c2)nc1NC1CCOCC1 (configuration not stated)
Activity [1]: 52%

Compound: CCc1nc(C(N)=O)c(Nc2ccc(N3CCC(N4CCN(C(=O)CCCCCOc5cccc6c5C(=O)N(C5CCC(=O)NC5=O)C6=O)CC4)CC3)c(OC)c2)nc1NC1CCOCC1 (configuration not stated)
Activity [1]: 36%

Compound: CCc1nc(C(N)=O)c(Nc2ccc(N3CCC(N4CCN(C(=O)CCCCCCCOc5cccc6c5C(=O)N(C5CCC(=O)NC5=O)C6=O)CC4)CC3)c(OC)c2)nc1NC1CCOCC1 (configuration not stated)
Activity [1]: 29%

Compound: CCc1nc(C(N)=O)c(Nc2ccc(N3CCC(N4CCN(C(=O)CCCCCCCCCNc5cccc6c5C(=O)N(C5CCC(=O)NC5=O)C6=O)CC4)CC3)c(OC)c2)nc1NC1CCOCC1 (configuration not stated)
Activity [1]: 0%
